What all share (assay type): ADME
Data set [1] addresses T1, Cytochrome P450 1A2 (Rattus norvegicus, UniProt P04799).
T1 sequence (P04799 whole entry): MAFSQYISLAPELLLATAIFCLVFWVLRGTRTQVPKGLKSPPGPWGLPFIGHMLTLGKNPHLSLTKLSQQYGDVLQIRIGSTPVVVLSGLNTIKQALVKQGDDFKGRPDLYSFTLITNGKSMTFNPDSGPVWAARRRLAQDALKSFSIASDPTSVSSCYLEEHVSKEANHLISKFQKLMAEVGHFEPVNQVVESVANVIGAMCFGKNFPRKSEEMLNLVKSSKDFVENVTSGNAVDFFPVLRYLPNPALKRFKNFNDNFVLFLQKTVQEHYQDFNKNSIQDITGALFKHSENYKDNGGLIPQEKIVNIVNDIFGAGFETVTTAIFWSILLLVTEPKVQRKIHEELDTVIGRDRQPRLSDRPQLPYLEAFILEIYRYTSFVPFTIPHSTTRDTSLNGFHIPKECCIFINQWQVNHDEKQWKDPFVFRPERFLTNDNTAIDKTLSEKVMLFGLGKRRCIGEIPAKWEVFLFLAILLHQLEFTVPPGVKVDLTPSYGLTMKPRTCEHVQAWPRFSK
Nature of the data set: (§1) Mechanism based inhibition of rat cytochrome P450 CYP1A2.

The next data set addresses T2, CYP1A2 (Rattus norvegicus, UniProt P04799).
T2 sequence (P04799 whole entry): T1 sequence (P04799 whole entry)
The data set is described as §1. Particulars: rat.

Data set [2] concerns the target T3, Cytochrome P450 1A2 (Homo sapiens, UniProt P05177).
T3 sequence (P05177 whole entry): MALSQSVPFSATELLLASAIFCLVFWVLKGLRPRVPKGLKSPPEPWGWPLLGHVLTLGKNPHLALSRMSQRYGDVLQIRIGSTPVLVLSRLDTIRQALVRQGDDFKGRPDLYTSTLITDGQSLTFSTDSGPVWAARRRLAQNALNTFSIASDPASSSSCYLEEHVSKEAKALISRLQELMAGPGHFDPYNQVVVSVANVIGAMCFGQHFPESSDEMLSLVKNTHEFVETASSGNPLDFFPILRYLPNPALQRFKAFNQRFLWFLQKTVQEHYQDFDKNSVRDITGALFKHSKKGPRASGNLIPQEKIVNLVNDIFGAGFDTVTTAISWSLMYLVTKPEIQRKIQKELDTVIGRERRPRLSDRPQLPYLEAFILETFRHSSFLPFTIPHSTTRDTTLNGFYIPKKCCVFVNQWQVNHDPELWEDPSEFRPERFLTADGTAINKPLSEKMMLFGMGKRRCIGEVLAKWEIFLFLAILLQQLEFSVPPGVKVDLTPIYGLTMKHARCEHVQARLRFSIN
Kind of data set: Mechanism based inhibition of human cytochrome P450 1A2 measured by 7-ethoxyresorufin O-deethylation (EROD).

The target of data set [3] is T4, Cytochrome P450 1A1 (Rattus norvegicus, UniProt P00185).
T4 sequence (P00185 whole entry): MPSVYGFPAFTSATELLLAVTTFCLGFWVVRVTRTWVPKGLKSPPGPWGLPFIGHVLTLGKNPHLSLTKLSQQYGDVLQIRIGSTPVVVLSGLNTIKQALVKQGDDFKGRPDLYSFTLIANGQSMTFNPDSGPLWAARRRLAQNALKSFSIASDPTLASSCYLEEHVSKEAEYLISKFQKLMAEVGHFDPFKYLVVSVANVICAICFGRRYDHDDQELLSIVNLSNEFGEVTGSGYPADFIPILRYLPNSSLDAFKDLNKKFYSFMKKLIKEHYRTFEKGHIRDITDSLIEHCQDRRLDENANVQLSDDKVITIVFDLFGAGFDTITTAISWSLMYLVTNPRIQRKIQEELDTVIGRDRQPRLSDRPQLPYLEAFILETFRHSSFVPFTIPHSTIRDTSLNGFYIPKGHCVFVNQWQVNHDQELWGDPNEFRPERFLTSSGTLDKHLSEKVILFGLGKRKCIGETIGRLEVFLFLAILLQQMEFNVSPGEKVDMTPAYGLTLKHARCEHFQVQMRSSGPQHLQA
Kind of data set: (§2) Mechanism based inhibition of rat cytochrome P450 CYP1A1 measured by 7-ethoxyresorufin O-deethylation (EROD).

The next data set deals with T5, CYP1A1 (Rattus norvegicus, UniProt P00185).
T5 sequence (P00185 whole entry): T4 sequence (P00185 whole entry)
Described as §2. As to conditions: rat, probe 7-ethoxyresorufin (O-deethylation, EROD).

Data set [4] concerns the target T6, Cytochrome P450 1A1 (Homo sapiens, UniProt P04798).
T6 sequence (P04798 whole entry): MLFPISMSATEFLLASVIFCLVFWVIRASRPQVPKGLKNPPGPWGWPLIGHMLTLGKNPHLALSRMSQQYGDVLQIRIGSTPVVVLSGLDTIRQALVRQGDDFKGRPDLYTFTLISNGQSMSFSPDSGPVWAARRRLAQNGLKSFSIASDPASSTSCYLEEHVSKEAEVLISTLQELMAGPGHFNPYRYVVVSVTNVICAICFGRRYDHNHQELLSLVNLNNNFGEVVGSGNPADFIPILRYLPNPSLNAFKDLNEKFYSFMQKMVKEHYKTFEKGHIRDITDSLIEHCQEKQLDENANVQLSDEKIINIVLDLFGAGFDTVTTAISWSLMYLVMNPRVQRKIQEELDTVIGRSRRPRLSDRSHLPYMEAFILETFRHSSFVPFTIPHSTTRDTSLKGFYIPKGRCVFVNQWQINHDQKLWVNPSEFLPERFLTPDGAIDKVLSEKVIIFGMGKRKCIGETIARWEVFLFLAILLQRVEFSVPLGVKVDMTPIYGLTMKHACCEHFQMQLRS
Kind of data set: Mechanism based inhibition of human cytochrome P450 1A1 measured by 7-ethoxyresorufin O-deethylation (EROD).

The target of a further data set is Cytochrome P450 4A4 (Oryctolagus cuniculus, UniProt P10611). Nature of the data set: Mechanism based inhibition of rabbit cytochrome P450 CYP4A4.
For the next data set, the target named is Cytochrome P450 3A4 (Homo sapiens, UniProt P08684). Nature of the data set: Mechanism based inhibition of human cytochrome P450 3A4 measured by testosterone 6-beta hydroxylation.
For data set [5], the target named is T7, Cytochrome P450 3A6 (Oryctolagus cuniculus, UniProt P11707). Nature of the data set: Mechanism based inhibition of rabbit cytochrome P450 3A6 measured by testosterone and progesterone 6-beta hydroxylation.
In data set [6] the target is T7, Cytochrome P450 3A6. Nature of the data set: Mechanism based inhibition of rabbit cytochrome P450 3A6, partition ratio.
In data set [7] the target is T8, Cytochrome P450 2E1 (Rattus norvegicus, UniProt P05182). Kind of data set: Mechanism based inhibition of rat cytochrome P450 CYP2E1.
Another data set has as its target CYP2E1 (Rattus norvegicus, UniProt P05182). Kind of data set: (§3) Mechanism based inhibition of rat cytochrome P450 CYP2E1 measured by P-nitrophenol (PNP) hydroxylase activity. As to conditions: rat, probe p-nitrophenol (PNP hydroxylase activity).
In data set [8] the target is T8, Cytochrome P450 2E1. The data set is described as §3.

T8 sequence (P05182 whole entry): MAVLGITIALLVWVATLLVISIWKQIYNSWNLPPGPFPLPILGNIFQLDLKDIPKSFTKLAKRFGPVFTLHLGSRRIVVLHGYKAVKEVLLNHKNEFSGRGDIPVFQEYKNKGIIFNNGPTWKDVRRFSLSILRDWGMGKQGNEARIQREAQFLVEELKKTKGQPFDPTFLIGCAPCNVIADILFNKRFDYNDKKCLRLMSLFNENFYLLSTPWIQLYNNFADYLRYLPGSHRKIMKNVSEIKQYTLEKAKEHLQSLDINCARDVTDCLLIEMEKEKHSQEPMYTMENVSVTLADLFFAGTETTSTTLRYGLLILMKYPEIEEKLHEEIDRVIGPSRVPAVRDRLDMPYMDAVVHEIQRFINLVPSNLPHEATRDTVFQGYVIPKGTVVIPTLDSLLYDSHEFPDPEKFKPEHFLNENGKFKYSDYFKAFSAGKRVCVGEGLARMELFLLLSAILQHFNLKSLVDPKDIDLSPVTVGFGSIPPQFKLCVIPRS
T7 sequence (P11707 whole entry): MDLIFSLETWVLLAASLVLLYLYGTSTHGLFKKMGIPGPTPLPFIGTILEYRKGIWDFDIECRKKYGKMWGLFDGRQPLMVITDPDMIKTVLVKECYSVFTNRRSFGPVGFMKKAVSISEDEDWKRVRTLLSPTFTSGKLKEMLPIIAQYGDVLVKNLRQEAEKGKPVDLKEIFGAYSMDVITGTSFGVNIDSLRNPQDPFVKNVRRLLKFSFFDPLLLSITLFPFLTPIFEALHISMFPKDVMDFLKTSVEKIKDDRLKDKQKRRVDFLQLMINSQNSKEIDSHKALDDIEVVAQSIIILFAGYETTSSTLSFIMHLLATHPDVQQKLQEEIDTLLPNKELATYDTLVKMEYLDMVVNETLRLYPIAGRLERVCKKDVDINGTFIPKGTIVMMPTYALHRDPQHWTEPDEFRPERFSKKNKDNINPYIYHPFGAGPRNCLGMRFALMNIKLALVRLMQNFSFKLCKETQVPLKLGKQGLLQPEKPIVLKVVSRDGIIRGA
Chain of CYP2E1 (P05182 whole entry): as the sequence (P05182 whole entry) above
Chain of Cytochrome P450 4A4 (P10611 whole entry): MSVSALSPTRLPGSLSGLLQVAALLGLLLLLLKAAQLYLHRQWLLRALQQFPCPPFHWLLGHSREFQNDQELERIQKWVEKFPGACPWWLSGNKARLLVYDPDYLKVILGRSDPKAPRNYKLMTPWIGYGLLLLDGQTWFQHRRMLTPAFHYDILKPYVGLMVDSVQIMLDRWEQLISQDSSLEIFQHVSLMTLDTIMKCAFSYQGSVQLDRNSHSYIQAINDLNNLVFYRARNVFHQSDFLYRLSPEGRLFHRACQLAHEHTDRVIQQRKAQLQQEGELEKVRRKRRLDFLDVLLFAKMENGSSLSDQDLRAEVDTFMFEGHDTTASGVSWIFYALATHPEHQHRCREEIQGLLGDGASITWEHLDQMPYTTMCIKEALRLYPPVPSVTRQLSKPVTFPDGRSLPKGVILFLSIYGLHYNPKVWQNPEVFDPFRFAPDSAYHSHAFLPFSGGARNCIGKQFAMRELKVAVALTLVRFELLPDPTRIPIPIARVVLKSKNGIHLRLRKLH
Chain of Cytochrome P450 3A4 (P08684 whole entry): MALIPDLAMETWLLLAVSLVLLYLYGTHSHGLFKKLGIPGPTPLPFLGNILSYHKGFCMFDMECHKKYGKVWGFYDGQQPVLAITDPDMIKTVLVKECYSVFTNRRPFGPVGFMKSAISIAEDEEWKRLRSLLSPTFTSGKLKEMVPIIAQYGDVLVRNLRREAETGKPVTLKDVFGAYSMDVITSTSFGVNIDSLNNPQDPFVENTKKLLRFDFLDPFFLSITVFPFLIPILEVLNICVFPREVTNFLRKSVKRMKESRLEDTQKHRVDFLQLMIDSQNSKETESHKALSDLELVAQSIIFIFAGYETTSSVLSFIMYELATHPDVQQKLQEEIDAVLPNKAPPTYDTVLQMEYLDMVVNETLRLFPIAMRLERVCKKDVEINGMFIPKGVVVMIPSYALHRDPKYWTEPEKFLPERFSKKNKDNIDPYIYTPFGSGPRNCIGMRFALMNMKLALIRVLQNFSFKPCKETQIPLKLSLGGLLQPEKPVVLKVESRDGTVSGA

By kinact is commonly meant the rate constant of inactivation at saturating inhibitor. Consider `CC#Cc1ccc2c(ccc3ccccc32)c1`, for which the values for the Ki on Cytochrome P450 1A2 [1] and on Cytochrome P450 1A1 [3] were 0.03 µM and 0.01 µM, respectively. The maximal inactivation rate constant (kinact) at CYP1A2 and on CYP1A1 was 0.005 s⁻¹ in each case. Moreover, the mechanism based inhibition entry at Cytochrome P450 1A2 [2] and on Cytochrome P450 1A1 [4] was “Cytochrome P450 mechanistic inhibitor: PMID 9760279” each time.
As to `C#CCCCC(O)CCCCCCCCCCC(=O)O` (stereo not drawn), the mechanism based inhibition result on Cytochrome P450 4A4 is “Cytochrome P450 mechanistic inhibitor: PMID 9168258”.
For `O=c1cc(-c2ccccc2)oc2c1ccc1ccccc12` [ALPHA-NAPHTHOFLAVONE], the mechanism based inhibition result at Cytochrome P450 3A4 is recorded as “Cytochrome P450 mechanistic inhibitor: PMID 11640917”. For the same compound, the Ki at Cytochrome P450 3A6 [5] turned out to be 80.1 µM. The Partition ratio on Cytochrome P450 3A6 [6] amounted to 21.
With `C=CCS(=O)(=O)CC=C` [DIALLYLSULFONE], at Cytochrome P450 2E1 [7], the mechanism based inhibition entry is “Cytochrome P450 mechanistic inhibitor: PMID 9084912”. Further, the kinact at CYP2E1 is 0.00533 s⁻¹. The Ki at Cytochrome P450 2E1 [8] turned out to be 188 µM.

These data come from ChEMBL document CHEMBL1743341, “Cytochrome p450 enzymes mechanism based inhibitors: common sub-structures and reactivity” (Curr Drug Metab, 2005).
